Test results reported in patent US6133323A, “Process for enhancing immune response in animals using β-carotene as a dietary supplement” (priority 1998, dated 2000).
Like-named read-outs stand apart in the source and are kept apart here.

How the values were obtained:
[1] = design: species or system female Beagle dogs; details: dog, in vivo
Protocol: (§1) Female Beagle dogs (18 to 19 months of age; 7 to 9 kg body weight) were used in Examples 1-3 and were fed a basal diet (The lams Co., Lewisburg, Ohio.) which met or exceeded the requirement for all essential nutrients. Animals were housed indoors in light--(14 hr light; 10 hr dark) and temperature-controlled rooms.
(§2) All procedures were conducted under dim light. Duplicate aliquots of plasma, each leukocyte homogenate, and each leukocyte subcellular fraction were extracted with a 1:1 mixture of diethyl ether and petroleum ether in the presence of BHT. The ether phase was removed and dried under a stream of nitrogen.
In this Example, the dogs (n=6/treatment) were fed daily at 0800 hr for 7 consecutive days with 0, 12.5, 25, 50 or 100 mg β-carotene. The β-carotene was top-dressed on the food and fed in the morning meal. Blood was sampled once daily on day 0 (immediately prior to the first dose) and subsequently at 6 hr after each dosing (days 1 through 7). […] Plasma was isolated and analyzed for concentrations of β-carotene.

blood lymphocytes = test system: blood lymphocytes; design: species or system female Beagle dogs; details: dog, in vivo
Protocol: as §1, §2
(§3) This example was designed to study the uptake of β-carotene in dogs by blood lymphocytes. The dogs (n=8/treatment) were fed 0, 50 or 100 mg of β-carotene daily for 30 days. Blood was sampled from all dogs via the jugular vein on days 10, 20 and 30. Blood lymphocytes and neutrophils were separated by density gradient centrifugation. Cell numbers were enumerated. Lymphocytes and neutrophils were resuspended in PBS containing 3% sodium ascorbate as an antioxidant. An aliquot of the cell suspension was sonicated for 30 seconds to disrupt the cells. The leukocyte homogenates were extracted for HPLC analysis of β-carotene.

blood neutrophils = test system: blood neutrophils; design: species or system female Beagle dogs; details: dog, in vivo
Protocol: as §1, §2, §3

[2] = test system: subcellular fractions of blood lymphocytes; design: species or system female Beagle dogs; details: dog, in vivo
Protocol: as §2, §3
(§4) On day 30, a larger aliquot of blood was taken and leukocyte suspensions prepared as described above for subsequent subcellular fractionation. Cells were disrupted by sonication for 20 seconds in 5 volumes of 0.25 M sucrose. Sodium ascorbate was added as the antioxidant. The homogenate was centrifuged (600×g for 10 min at 4° C.) and the nuclear pellet separated from the supernatant. The postnuclear supernatant was centrifuged (17,300×g for 20 min at 4° C.) to separate the mitochondrial fraction. The postmitochondrial supernatant was centrifuged (102,000×g for 60 min at 4° C.) to separate the microsomal from the cytosolic fraction. Each subcellular fraction was analyzed for β-carotene content by HPLC.

[3] = test system: subcellular fractions of blood neutrophils; design: species or system female Beagle dogs; details: dog, in vivo
Protocol: as §2, §3, §4

[4] = assay type: in vivo, female Beagles (dogs); details: dog, daily supplementation
Protocol: (§5) Female Beagles (4 to 5 mo old) were supplemented daily with 0, 25, 50 or 100 mg of β-carotene to study the role of dietary β-carotene in enhancing the cell-mediated and humoral immune systems of the dog. The following parameters were assessed in all the animals or in the peripheral blood lymphocytes: (1) delayed-type hypersensitivity (DTH) against PHA (nonspecific immunity) and vaccine (specific immunity), (2) lymphocyte proliferation, (3) lymphocyte populations and (4) immunoglobulins (Ig).

DTH response to PHA = experiment: Delayed-type hypersensitivity (DTH) against PHA (nonspecific immunity); assay type: in vivo, female Beagles (dogs); details: dog, 50 mg β-carotene daily, 7 weeks
Protocol: as §5

DTH response to vaccine = experiment: Delayed-type hypersensitivity (DTH) against vaccine (specific immunity); assay type: in vivo, female Beagles (dogs); details: dog, 20 or 50 mg β-carotene daily, 7 weeks
Protocol: (§6) The following parameters were assessed in all the animals or in the peripheral blood lymphocytes: (1) delayed-type hypersensitivity (DTH) against PHA (nonspecific immunity) and vaccine (specific immunity), (2) lymphocyte proliferation, (3) lymphocyte populations and (4) immunoglobulins (Ig).

CD4+ cells = experiment: Lymphocyte populations (CD4+ cells); assay type: in vivo, female Beagles (dogs); details: dog, 20 or 50 mg daily, wk 8
Protocol: as §6

CD8 cells = experiment: Lymphocyte populations (CD8 cells); assay type: in vivo, female Beagles (dogs); details: dog, 20 mg daily, weeks 2 and 4
Protocol: as §6

[5] = test system: immunoglobulins (IgG, IgM, total IgG); experiment: Plasma immunoglobulins (Ig); assay type: in vivo, female Beagles (dogs); details: dog
Protocol: as §6

lymphocyte blastogenesis = experiment: Mitogen-induced lymphocyte blastogenesis (lymphocyte proliferation); assay type: in vivo, female Beagles (dogs); details: dog, β-carotene feeding
Protocol: as §5

IL-2 = IL-2 production; assay type: in vivo, female Beagles (dogs); details: dog, β-carotene feeding
in vivo [6] = experiment: in vivo; design: species or system female short hair Tabby cats; details: po
Protocol: (§7) Mature female short hair Tabby cats (7 to 8 months of age; 1.5 to 2.0 kg body weight) were used for Examples 4-6and were fed a basal diet (The lams Co., Lewisburg, Ohio.) which met or exceeded the requirement for all essential nutrients. Animals were group-housed indoors in light- and temperature-controlled rooms.
To study the uptake of oral β-carotene in cats given a single dose of β-carotene orally, cats (n=6/treatment) were given once perorally 0, 10, 20 or 50 mg of β-carotene (10% cold water dissolvable; BASF Corp., Ludwigshafen, Germany). The appropriate dose of β-carotene was dissolved in 0.6 ml of water and fed orally by using a feeding syringe. […] These cats were fed once with 50 mg β-carotene and blood sampled at 0 (immediately prior to β-carotene feeding), 3, 6, 10, 16, 24, 30 and 36 hr.
The results from this example are illustrated in FIG. 14 and show peak concentrations of β-carotene generally occurring between 10 and 16 hr post-dosing. Subsequently, blood was sampled from the remaining cats at 0, 12, 24, 30, 36, 42, 48 and 72 hr after dosing. Plasma was similarly separated and analyzed.

in vivo [7] = experiment: in vivo; design: species or system female short hair Tabby cats
Protocol: as §7
In this Example, the cats (n=6/treatment) were dosed daily at 0800 hr for 6 consecutive days with 0, 1, 2, 5 or 10 mg β-carotene. Blood was sampled once daily on day 0 (immediately prior to the first dose) and subsequently at 12 hr after each dosing (days 1 through 6). This blood sampling time was chosen based on the results obtained in Example 5. Plasma was isolated and analyzed for concentrations of β-carotene.

[8] = test system: peripheral blood lymphocytes; design: species or system female short hair Tabby cats; details: in vivo
Protocol: as §7
(§8) This example studied the uptake of β-carotene by blood lymphocytes in cats. The cats (n=8/treatment) were fed 0, 5 or 10 mg of β-carotene daily for 14 days. Blood was sampled on days 7 and 14 with the aid of a blood collection vacutainer set (Becton Dickenson, Franklin Lakes, N.J.) in sedated animals (10 mg ketamine and 0.1 mg of acepromazine/kg body weight). Blood lymphocytes and neutrophils were separated by density gradient centrifugation. Cell numbers were enumerated. Lymphocytes were resuspended in PBS containing 3% sodium ascorbate as an antioxidant. An aliquot of the cell suspension was sonicated for 30 seconds to disrupt the cells. The lymphocyte homogenate was extracted for the HPLC analysis of β-carotene. Adequate numbers of neutrophils could not be obtained; therefore, no data are available in quantitating the uptake of β-carotene by circulating neutrophils.

[9] = test system: subcellular lymphocyte fractions; design: species or system female short hair Tabby cats; details: in vivo
Protocol: as §7, §8
A larger aliquot was used to prepare subcellular lymphocyte fractions. Lymphocytes were disrupted by sonication for 20 seconds in 5 volumes of 0.25 M sucrose. Sodium ascorbate was added as the antioxidant. The homogenate was centrifuged (600×g for 10 min at 4° C.) and the crude nuclear pellet separated from the supernatant. The postnuclear supernatant obtained earlier was centrifuged (7,300×g for 20 min at 4° C.) to separate the mitochondrial fraction. The postmitochondrial supernatant was centrifuged (102,000×g for 60 min at 4° C.) to separate the microsomal from the cytosolic fraction. Each subcellular fraction was analyzed for β-carotene content by HPLC.

[10] = dog, in vivo
[11] = pigs and rodents; cited from earlier work
in vivo [12] = details: dog, po
[13] = cited from earlier work
[14] = Blood uptake of β-carotene in dogs after a single oral dose (plasma, HPLC); details: dog

## CC1=C(/C=C/C(C)=C/C=C/C(C)=C/C=C/C=C(C)/C=C/C=C(C)/C=C/C2=C(C)CCCC2(C)C)C(C)(C)CCC1 [β-carotene]
[1]
  increase in daily concentrations of plasma β-carotene, 100 mg vs other doses: steepest increase
  plasma β-carotene after the last dose relative to after the first dose: 2.5-4 fold
Blood lymphocytes
  treatment difference in β-carotene concentrations in lymphocytes, 50 versus 100 mg: no significant treatment difference
  β-carotene in lymphocytes of dogs lower than that observed in cats: 20-30 fold
  β-carotene in peripheral blood lymphocytes on day 0: undetectable
Blood neutrophils
  neutrophil β-carotene concentrations on day 30: no further increase
[2]
  share of total lymphocyte β-carotene in the cytosol: 52-62%
  share of total lymphocyte β-carotene in the microsomes: 16-23%
  share of total lymphocyte β-carotene in the mitochondria: 14-17%
  share of total lymphocyte β-carotene in the nuclei: 6-8%
  β-carotene in lymphocyte subcellular fractions of dogs compared with cats: substantially lower
[3]
  dose effect on β-carotene uptake by neutrophil subcellular fractions: No significant dose effect
  β-carotene in nuclei of blood neutrophils: not detected
[4]
  effect on plasma retinol: did not influence
  effect on plasma α-tocopherol: did not influence
DTH response to PHA
  DTH response to PHA: greatest response
DTH response to vaccine
  DTH response to vaccine: significantly higher DTH response
CD4+ cells
  population of CD4+ cells compared to controls: elevated population
CD8 cells
  population of CD8 cells: elevated population
[5]; 0 to 20 mg
  dose dependence of Ig increases: dose dependent
[5]; 20 mg daily
  antibody response for both Ig at 20 mg: greatest antibody response
[5]; 50 mg daily
  Ig response at the highest level (50 mg): did not produce a further increase
[5]; as early as 1 wk after dietary supplementation
  concentrations of IgG, IgM and total IgG: increased significantly
Lymphocyte blastogenesis
  mitogen-induced lymphocyte blastogenesis: did not influence
IL-2
  IL-2 production: did not influence
In vivo [6]; cat
  half-life of plasma β-carotene: about 24 hr
In vivo [6]; cat, half-life of plasma β-carotene
  half-life: 12 to 18 h
In vivo [6]; cat, time of peak concentrations of plasma β-carotene
  Tmax: 12 h
In vivo [6]; cat, time of peak concentrations of β-carotene (post-dosing)
  Tmax: 10 to 16 h
In vivo [6]
  plasma β-carotene concentration, 50 mg vs other doses: highest (P<0.01)
In vivo [7]
  increase in daily changes in plasma β-carotene, 10 mg vs other doses: steepest increase
  plasma β-carotene after the last dose relative to after one dose: 1.5-2 fold
In vivo [7]; cat, po
  concentration at 12 h: 192 ± 58 ng/mL
[8]
  accumulation of β-carotene in lymphocytes, 10 mg vs 5 mg: did not have higher accumulation
  day of maximal uptake of dietary β-carotene by lymphocytes: ≤ 7 days
  uptake of β-carotene by blood lymphocytes on day 14: no additional increases
  β-carotene in peripheral blood lymphocytes on day 0: undetectable
[9]
  accumulation of β-carotene in all fractions, day 14 vs day 7: no additional accumulation
  concentrations of β-carotene in lymphocyte fractions, 10 mg vs 5 mg: did not have higher concentrations
  influence of dose or length of supplementation on relative β-carotene profiles in lymphocyte fractions: generally were not influenced
  relative proportion of β-carotene in the microsomes of lymphocytes: 20-35%
  β-carotene uptake in the nuclei compared to unsupplemented controls: significant
[10]
  plasma β-carotene of dogs lower than that observed in cats: 10-16 fold
  time of peak blood β-carotene, dogs compared with cats: occurred earlier in dogs than in cats
[10]; po
  half-life of plasma β-carotene: ~4 h
[11]
  concentrations of β-carotene: very low concentrations
In vivo [12]
  Tmax: 3 to 6 h
In vivo [12]; half-life of plasma β-carotene
  half-life: ~3 h
[13]; earlier studies
  β-carotene in the liver and milk of dogs: only trace amounts
[13]; some studies
  β-carotene in the circulating blood and organs of dogs: low to undetectable amounts
[14]
  Tmax: 6 h

## carotene
[13]; dog, in vivo
  carotene in the blood, liver and milk of dogs: trace amounts, if any
